Assay results as given in US8575091B1, “Amylin analogues and pharmaceutical compositions thereof” (Novo Nordisk A/S, priority 2012, dated 2013).
Numbered stars: 1 amine (or outer) side, 2 acyl side, 3 side chain; on linkers, the order of the positions; unused ones are H or OH. Bridge positions count the residues as written; N and C are the ends. Side chains are listed from the residue outwards. Peptide text beside a SMILES is read from it. * marks the point of attachment. C20 diacid = O=C(O)CCCCCCCCCCCCCCCCCCC(=O)*; γGlu = O=C(O)[C@H](CCC(=O)[*:2])N[*:1]; AEEA = NCCOCCOCC(=O)O

Target: T1, human amylin receptor (amylin 3(a) receptor: human calcitonin receptor + RAMP-3) (Homo sapiens, UniProt O60896+P30988)
T1 construct: expressed in transfected cells
T1 sequence (P30988 25-474): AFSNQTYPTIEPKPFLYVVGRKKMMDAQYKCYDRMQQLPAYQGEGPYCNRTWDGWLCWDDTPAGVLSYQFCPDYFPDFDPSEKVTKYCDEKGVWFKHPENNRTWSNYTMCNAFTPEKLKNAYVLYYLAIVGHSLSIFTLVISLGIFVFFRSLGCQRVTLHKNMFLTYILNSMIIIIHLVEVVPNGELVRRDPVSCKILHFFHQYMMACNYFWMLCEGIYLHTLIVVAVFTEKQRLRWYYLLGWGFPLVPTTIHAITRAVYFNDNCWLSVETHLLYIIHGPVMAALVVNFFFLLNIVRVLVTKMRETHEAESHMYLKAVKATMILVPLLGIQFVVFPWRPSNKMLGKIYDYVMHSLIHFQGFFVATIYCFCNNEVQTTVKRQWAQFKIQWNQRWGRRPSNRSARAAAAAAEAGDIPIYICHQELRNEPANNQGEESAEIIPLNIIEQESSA
T1 sequence (O60896 24-148 partner): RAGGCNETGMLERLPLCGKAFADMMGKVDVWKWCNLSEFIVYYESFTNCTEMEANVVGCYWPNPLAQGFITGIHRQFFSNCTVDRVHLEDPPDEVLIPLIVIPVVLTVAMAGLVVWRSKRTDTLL
Test: Assay (II)a functional assay, human amylin receptor (CRE luciferase, BHK cells)
Assay type: cell-based

[1] = Table 6, human functional selectivity (hCTR EC50 / hAmylin-R EC50)
[2] = Table 6a, human functional selectivity (hCTR EC50 / hAmylin-R EC50), at least 5
[3] = Table 6j, hCTR funct. EC50 / hAmylin-R funct. EC50
[4] = Table 6k, hCTR funct. EC50 / hAmylin-R funct. EC50

Ratio hCT/hAmylin funct. [1]	Ratio hCT/hAmylin funct. [2]	Ratio hCT/hAmylin funct. [3]	Ratio hCT/hAmylin funct. [4]	Ratio hCT/hAmylin funct. (hCTR funct. EC50 divided by hAmylin-R funct. EC50)	Ratio hCT/hAmylin funct. (Table 6i, hCTR funct. EC50 / hAmylin-R funct. EC50)	Compound
33.0	33.0	33.0	33.0			CC[C@H](C)[C@H](NC(=O)[C@H](C)NC(=O)CNC(=O)[C@H](Cc1ccccc1)NC(=O)[C@H](CC(N)=O)NC(=O)[C@@H]1CCCN1C(=O)[C@H](CO)NC(=O)[C@H](CO)NC(=O)[C@H](Cc1c[nH]cn1)NC(=O)[C@H](CCCNC(=N)N)NC(=O)[C@H](CC(C)C)NC(=O)[C@H](Cc1ccccc1)NC(=O)[C@H](CC(N)=O)NC(=O)[C@H](C)NC(=O)[C@H](CC(C)C)NC(=O)[C@H](CCCNC(=N)N)NC(=O)[C@H](CCC(N)=O)NC(=O)[C@@H](NC(=O)[C@H](C)NC(=O)[C@@H]1CSSC[C@H](NC(=O)[C@@H](N)CCCCNC(=O)COCCOCCNC(=O)COCCOCCNC(=O)CC[C@H](NC(=O)CCCCCCCCCCCCCCCCCCC(=O)O)C(=O)O)C(=O)N[C@@H](CC(N)=O)C(=O)N[C@@H]([C@@H](C)O)C(=O)N[C@@H](C)C(=O)N[C@@H]([C@@H](C)O)C(=O)N1)[C@@H](C)O)C(=O)N1CCC[C@H]1C(=O)N[C@@H](CO)C(=O)N[C@@H](CO)C(=O)N[C@H](C(=O)N[C@@H](CC(N)=O)C(=O)N[C@H](C(=O)NCC(=O)N[C@@H](CCCNC(=N)N)C(=O)N[C@@H](CC(N)=O)C(=O)N[C@H](C(=O)N[C@@H](Cc1ccc(O)cc1)C(N)=O)[C@@H](C)O)C(C)C)[C@@H](C)O [Example 95] (H-K([AEEA-AEEA-γGlu-C20 diacid])CNTATCATQRLANFLRHSSPNFGAIPSSTNVGRNTY-NH2; disulfide 2-7 (inferred); N-terminus and C-terminus assumed)
12.0	12.0			12.0		CC(C)C[C@H](NC(=O)[C@H](CCCNC(=N)N)NC(=O)[C@H](CCC(N)=O)NC(=O)[C@@H](NC(=O)[C@H](C)NC(=O)[C@@H]1CSSC[C@H](NC(=O)[C@@H](N)CCCCNC(=O)CC[C@H](NC(=O)CC[C@H](NC(=O)CCCCCCCCCCCCCCCCCCC(=O)O)C(=O)O)C(=O)O)C(=O)N[C@@H](CC(N)=O)C(=O)N[C@@H]([C@@H](C)O)C(=O)N[C@@H](C)C(=O)N[C@@H]([C@@H](C)O)C(=O)N1)[C@@H](C)O)C(=O)N[C@@H](C)C(=O)N[C@@H](CC(=O)O)C(=O)N[C@@H](Cc1ccccc1)C(=O)N[C@@H](CC(C)C)C(=O)N[C@@H](CCCNC(=N)N)C(=O)N[C@@H](Cc1c[nH]cn1)C(=O)N[C@@H](CO)C(=O)N[C@@H](CO)C(=O)N1CCC[C@H]1C(=O)N[C@@H](CC(N)=O)C(=O)N[C@@H](Cc1ccccc1)C(=O)NCC(=O)N[C@@H](C)C(=O)N1CCC[C@H]1C(=O)N[C@@H](CC(C)C)C(=O)N[C@@H](CO)C(=O)N[C@@H](CO)C(=O)N[C@H](C(=O)N[C@@H](CC(N)=O)C(=O)N[C@H](C(=O)NCC(=O)N[C@@H](CO)C(=O)N[C@@H](CC(=O)O)C(=O)N[C@H](C(=O)N[C@@H](Cc1ccc(O)cc1)C(N)=O)[C@@H](C)O)C(C)C)[C@@H](C)O [Example 1] (H-K([γGlu-γGlu-C20 diacid])CNTATCATQRLADFLRHSSPNFGAPLSSTNVGSDTY-NH2; disulfide 2-7; N-terminus assumed)
6.3	6.3	6.3	6.3		6.3	CC[C@H](C)[C@H](NC(=O)[C@H](C)NC(=O)CNC(=O)[C@H](Cc1ccccc1)NC(=O)[C@H](CC(N)=O)NC(=O)[C@@H]1CCCN1C(=O)[C@H](CO)NC(=O)[C@H](CO)NC(=O)[C@H](Cc1c[nH]cn1)NC(=O)[C@H](CCCNC(=N)N)NC(=O)[C@H](CC(C)C)NC(=O)[C@H](Cc1ccccc1)NC(=O)[C@H](CCC(=O)O)NC(=O)[C@H](C)NC(=O)[C@H](CC(C)C)NC(=O)[C@H](CCCNC(=N)N)NC(=O)[C@H](CCC(N)=O)NC(=O)[C@@H](NC(=O)[C@H](C)NC(=O)[C@@H]1CSSC[C@H](NC(=O)[C@@H](N)CCCCNC(=O)CC[C@H](NC(=O)CCCCCCCCCCCCCCCCCCC(=O)O)C(=O)O)C(=O)N[C@@H](CC(N)=O)C(=O)N[C@@H]([C@@H](C)O)C(=O)N[C@@H](C)C(=O)N[C@@H]([C@@H](C)O)C(=O)N1)[C@@H](C)O)C(=O)N1CCC[C@H]1C(=O)N[C@@H](CO)C(=O)N[C@@H](CO)C(=O)N[C@H](C(=O)N[C@@H](CC(N)=O)C(=O)N[C@H](C(=O)NCC(=O)N[C@@H](Cc1c[nH]cn1)C(=O)N[C@@H](CCC(=O)O)C(=O)N[C@H](C(=O)N[C@@H](Cc1ccc(O)cc1)C(N)=O)[C@@H](C)O)C(C)C)[C@@H](C)O [Example 107] (H-K([γGlu-C20 diacid])CNTATCATQRLAEFLRHSSPNFGAIPSSTNVGHETY-NH2; disulfide 2-7 (inferred); N-terminus and C-terminus assumed)
17.0	17.0	17.0	17.0			CC[C@H](C)[C@H](NC(=O)[C@H](C)NC(=O)CNC(=O)[C@H](Cc1ccccc1)NC(=O)[C@H](CC(N)=O)NC(=O)[C@@H]1CCCN1C(=O)[C@H](CO)NC(=O)[C@H](CO)NC(=O)[C@H](Cc1c[nH]cn1)NC(=O)[C@H](CCCNC(=N)N)NC(=O)[C@H](CC(C)C)NC(=O)[C@H](Cc1ccccc1)NC(=O)[C@H](CC(N)=O)NC(=O)[C@H](C)NC(=O)[C@H](CC(C)C)NC(=O)[C@H](CCCNC(=N)N)NC(=O)[C@H](CCC(N)=O)NC(=O)[C@@H](NC(=O)[C@H](C)NC(=O)[C@@H]1CSSC[C@H](NC(=O)[C@@H](N)CCCCNC(=O)CC[C@H](NC(=O)CCCCCCCCCCCCCCCCCCC(=O)O)C(=O)O)C(=O)N[C@@H](CC(N)=O)C(=O)N[C@@H]([C@@H](C)O)C(=O)N[C@@H](C)C(=O)N[C@@H]([C@@H](C)O)C(=O)N1)[C@@H](C)O)C(=O)N1CCC[C@H]1C(=O)N[C@@H](CO)C(=O)N[C@@H](CO)C(=O)N[C@H](C(=O)N[C@@H](CC(N)=O)C(=O)N[C@H](C(=O)NCC(=O)N[C@@H](CO)C(=O)N[C@@H](CC(N)=O)C(=O)N[C@H](C(=O)N[C@@H](Cc1ccc(O)cc1)C(N)=O)[C@@H](C)O)C(C)C)[C@@H](C)O [Example 48]
9.2	9.2	9.2	9.2			CC[C@H](C)[C@H](NC(=O)[C@H](C)NC(=O)CNC(=O)[C@H](Cc1ccccc1)NC(=O)[C@H](CC(N)=O)NC(=O)[C@@H]1CCCN1C(=O)[C@H](CO)NC(=O)[C@H](CO)NC(=O)[C@H](Cc1c[nH]cn1)NC(=O)[C@H](CCCNC(=N)N)NC(=O)[C@H](CC(C)C)NC(=O)[C@H](Cc1ccccc1)NC(=O)[C@H](CC(N)=O)NC(=O)[C@H](C)NC(=O)[C@H](CC(C)C)NC(=O)[C@H](CCCNC(=N)N)NC(=O)[C@H](CCC(N)=O)NC(=O)[C@@H](NC(=O)[C@H](C)NC(=O)[C@@H]1CSSC[C@H](NC(=O)[C@H](CCCCN)NC(=O)CC[C@H](NC(=O)CCCCCCCCCCCCCCCCCCC(=O)O)C(=O)O)C(=O)N[C@@H](CC(N)=O)C(=O)N[C@@H]([C@@H](C)O)C(=O)N[C@@H](C)C(=O)N[C@@H]([C@@H](C)O)C(=O)N1)[C@@H](C)O)C(=O)N1CCC[C@H]1C(=O)N[C@@H](CO)C(=O)N[C@@H](CO)C(=O)N[C@H](C(=O)N1CCC[C@H]1C(=O)N[C@H](C(=O)NCC(=O)N[C@@H](CO)C(=O)N[C@@H](CCC(=O)O)C(=O)N[C@H](C(=O)N[C@@H](Cc1ccc(O)cc1)C(N)=O)[C@@H](C)O)C(C)C)[C@@H](C)O [Example 28] ({C20 diacid-γGlu}-KCNTATCATQRLANFLRHSSPNFGAIPSSTPVGSETY-NH2; disulfide 2-7)
4.9						CC[C@H](C)[C@H](NC(=O)[C@H](C)NC(=O)CNC(=O)[C@H](Cc1ccccc1)NC(=O)[C@H](CC(N)=O)NC(=O)[C@@H]1CCCN1C(=O)[C@H](CO)NC(=O)[C@H](CO)NC(=O)[C@H](Cc1c[nH]cn1)NC(=O)[C@H](CCCNC(=N)N)NC(=O)[C@H](CC(C)C)NC(=O)[C@H](Cc1ccccc1)NC(=O)[C@H](C)NC(=O)[C@H](C)NC(=O)[C@H](CC(C)C)NC(=O)[C@H](CCCNC(=N)N)NC(=O)[C@H](CCC(N)=O)NC(=O)[C@@H](NC(=O)[C@H](C)NC(=O)[C@@H]1CSSC[C@H](NC(=O)[C@H](CCCNC(=N)N)NC(=O)CNC(=O)CC[C@H](NC(=O)CCCCCCCCCCCCCCCCCCC(=O)O)C(=O)O)C(=O)N[C@@H](CC(N)=O)C(=O)N[C@@H]([C@@H](C)O)C(=O)N[C@@H](C)C(=O)N[C@@H]([C@@H](C)O)C(=O)N1)[C@@H](C)O)C(=O)N1CCC[C@H]1C(=O)N[C@@H](CO)C(=O)N[C@@H](CO)C(=O)N[C@H](C(=O)N[C@@H](CC(N)=O)C(=O)N[C@H](C(=O)NCC(=O)N[C@@H](Cc1c[nH]cn1)C(=O)N[C@@H](CC(N)=O)C(=O)N[C@H](C(=O)N[C@@H](Cc1ccc(O)cc1)C(N)=O)[C@@H](C)O)C(C)C)[C@@H](C)O [Example 101] ({C20 diacid-γGlu}-GRCNTATCATQRLAAFLRHSSPNFGAIPSSTNVGHNTY-NH2; disulfide 3-8 (inferred); C-terminus assumed)
